{"source": "patent US8557855B2", "about": "“Methods of using ryanodine antagonists in treating neural injury” (Allergan, Inc., priority 2002, dated 2013)", "key": {"[1]": {"test_system": "retinal ganglion cells", "experiment": "NMDA-induced injury of retinal ganglion cells in vivo in rabbits (cell count at RGC layer)", "conditions": "rabbit", "text": "(§1) To evaluate in vivo neuroprotective effects of dantrolene (DTL) on NMDA-induced injury of RGCs an imaging method to count cell numbers at the RGC layer in the isolated retinas was developed. Briefly, two weeks following intravitreal injection of vehicle or various test agents, a rabbit was euthanized and the treated eye was enucleated. A piece of retina (8 mm in diameter) was cut immediately below the optic nerve head, flat-mounted in a plastic chamber filled with HEPES-buffered Ames medium, and imaged at 25 fields in a 5×5 array with a 40× water immersion objective using an Olympus microscope (BX50WI) equipped with an epi-fluorescence unit. The images were taken with a Hamamatsu C4742-95 digital camera and Image-Pro Plus software (V4.5). The total number of neurons at the ganglion cell layer in these 25 fields was counted. The same measurements were conducted in one control group (rabbits treated with vehicle) and 4 test groups treated with 1) NMDA, 2) dantrolene+NMDA, 3) veratridine (Verat) a neurotoxin that damages retinal ganglion cells with intracellular sodium overload, and 4) dantrolene+veratridine. The results from the 4 test groups are normalized with respect to that of control."}, "[2]": {"test_system": "retinal ganglion cells", "conditions": "cited from earlier work"}, "[3]": {"test_system": "retinal ganglion cells", "format": "in vivo", "conditions": "rabbit, intravitreal injection, two weeks after injection, normalized to vehicle control", "text": "as §1"}}}
{"smiles": "CN[C@H](CC(=O)O)C(=O)O", "note": "[NMDA]", "values": [{"measurement": "loss of cells at the RGC layer caused by NMDA alone", "setting": "[1]; intravitreal injection, two weeks after injection, normalized to vehicle control", "value": 53, "unit": "%"}]}
{"smiles": "CC12CC3CC(C)(C1)CC(N)(C3)C2", "note": "[memantine]", "values": [{"measurement": "effect on RGC loss in glaucomatous monkeys", "setting": "[2]", "value": "ameliorates RGC loss"}]}
{"smiles": "O=C1CN(N=Cc2ccc(-c3ccc([N+](=O)[O-])cc3)o2)C(=O)N1", "note": "[dantrolene, 1-[[5-(p-Nitrophenyl)furfurylidene]amino]hydantoin]", "values": [{"measurement": "neuroprotective effect on NMDA-induced damage to ganglion cells (FIG. 1)", "setting": "[1]; intravitreal injection of NMDA", "value": "ameliorated NMDA-induced damage to ganglion cells"}, {"measurement": "NMDA-induced cell death at the RGC layer after pretreatment with dantrolene", "setting": "[1]; intravitreal injection, two weeks after injection, normalized to vehicle control, NMDA alone 53%", "value": 35, "unit": "%"}, {"measurement": "cell loss caused by veratridine with dantrolene", "setting": "[3]; veratridine alone 56%", "value": 50, "unit": "%"}]}
{"smiles": "COc1ccc(C(=O)O[C@H]2CC[C@@]3(C)[C@@H]4CC[C@H]5[C@]6(O)C[C@H](O)[C@@]7(O)[C@@H](CN8C[C@@H](C)CC[C@H]8[C@@]7(C)O)[C@]6(O)C[C@@]53O[C@]24O)cc1OC", "note": "[veratridine]", "values": [{"measurement": "cell loss at the RGC layer caused by veratridine alone", "setting": "[3]", "value": 56, "unit": "%"}]}
